One may read the GI50 as the concentration that inhibits growth by half.

Here are results for 20 molecules from ChEMBL document CHEMBL1132322, “Paullones, a series of cyclin-dependent kinase inhibitors: synthesis, evaluation of CDK1/cyclin B inhibition, and in vitro antitumor activity” (J Med Chem, 1999).

Common to all, as to assay: cells
Experiment [1] has as its system Tumor Cell line. It counts as functional. Conditions: Homo sapiens.
Experiment [2] has as its system HCT-116. It counts as functional. Conditions: Homo sapiens.
Description: The logarithmic molar concentration inhibiting 50% net cell growth was measured on HCT116 (M) colon cancer cell lines.
In experiment [3] the test system is Tumor Cell line. Conditions: Homo sapiens, read-out: Log GI50 (converted).
In experiment [4] the test system is HCT-116. It counts as functional. Conditions: Homo sapiens. This is another data set of the same source.
Description: The logarithmic molar concentration inhibiting 50% net cell growth was measured on HCT116 (M)colon cancer cell lines (in experiment 1)
In experiment [5] the test system is Tumor Cell line. To be noted: Homo sapiens, read-out: Log GI50 (converted). This is another data set of the same source.
Experiment [6] has as its system HCT-116. The experiment is classed as functional. Conditions: Homo sapiens. This is another data set of the same source.
Description: The logarithmic molar concentration inhibiting 50% net cell growth was measured on HCT116 (M)colon cancer cell lines (in experiment 2)

Take `O=C1Cc2c([nH]c3c(Br)cccc23)-c2ccccc2N1`: the GI50 in the experiment on Tumor Cell line [1] was 50.1 µM.

In the case of `ONC1=Nc2ccccc2-c2[nH]c3ccc(Br)cc3c2C1`, the results for the GI50 in the experiment on Tumor Cell line [1] and in the experiment on HCT-116 [2] were 10 µM and 6.31 µM, respectively.

As for `CN1C(=O)Cc2c([nH]c3ccc(Br)cc23)-c2ccccc21`, the GI50 in the experiment with Tumor Cell line [3] is 31.6 µM.

`O=C1Cc2c([nH]c3ccc(Br)cc23)-c2cc(O)c(O)cc2N1` had a GI50 in the experiment on Tumor Cell line [1] of 100 µM.

As for `CCN1C(=O)Cc2c([nH]c3ccc(Br)cc23)-c2ccccc21`, the GI50 in the experiment with HCT-116 [4] is over 100 µM; with Tumor Cell line [5], 12.6 µM; in the experiment with HCT-116 [6], 12.6 µM; in the experiment with Tumor Cell line [3] it was 25.1 µM.

Molecule `O=C1Cc2c([nH]c3ccc(Br)cc23)-c2cc(Br)ccc2N1` had a GI50 in the experiment on Tumor Cell line [1] of 100 µM.

Consider `COc1cccc2c1NC(=O)Cc1c-2[nH]c2ccccc12`, for which the GI50 with Tumor Cell line [1] is 79.4 µM.

On to `CSC1=Nc2ccccc2-c2[nH]c3ccc(Br)cc3c2C1`, for which the GI50 in the experiment on HCT-116 [6] is 1.58 µM.

Consider `COC(=O)CN1C(=O)Cc2c([nH]c3ccc(Br)cc23)-c2ccccc21`, for which, in the experiment on Tumor Cell line [5], the GI50 is 31.6 µM.

Regarding `CN1CCC(c2c(O)cc(O)c3c(=O)cc(-c4ccccc4Cl)oc23)[C@@H](O)C1` (stereo not given in full), the GI50 is 0.0631 µM in the experiment on Tumor Cell line [1] and 0.0251 µM in the experiment with HCT-116 [2].

Turning to `N#Cc1ccc2[nH]c3c(c2c1)CC(=O)Nc1ccccc1-3` [PAULLONE 2], the GI50 was 79.4 µM with Tumor Cell line [1] and 20 µM in the experiment on HCT-116 [2].

Regarding `O=C1Cc2c([nH]c3ccc(Br)cc23)-c2ccccc2N1` [KENPAULLONE], the GI50 with Tumor Cell line [1] was 39.8 µM.

`O=C1Cc2c([nH]c3ccc(Cl)cc23)-c2ccccc2N1`: the GI50 with Tumor Cell line [1] was 79.4 µM; in the experiment with HCT-116 [2], 3.16 µM.

On to `O=C1Cc2c([nH]c3ccc(Br)cc23)-c2ccccc2N1Cc1ccccc1` [PAULLONE], for which the 50% growth inhibitory concentration (GI50) was 20 µM in the experiment with HCT-116 [2], 100 µM with Tumor Cell line [5] and 31.6 µM in the experiment on Tumor Cell line [3].

In the case of `O=C1Cc2c([nH]c3cc(Br)ccc23)-c2ccccc2N1`, the concentration for 50% growth inhibition (GI50) was 15.8 µM in the experiment on Tumor Cell line [1] and 3.16 µM in the experiment on HCT-116 [2].

Turning to `O=C1Cc2c([nH]c3ccc([N+](=O)[O-])cc23)-c2ccccc2N1` [ALSTERPAULLONE], the GI50 was 0.316 µM with Tumor Cell line [5] and 0.398 µM in the experiment on Tumor Cell line [3].

With `O=C1Cc2c([nH]c3ccccc23)-c2ccccc2N1` [PAULLONE], the GI50 in the experiment on Tumor Cell line [1] was 31.6 µM; with HCT-116 [2] it was 15.8 µM.

As for `CCc1cccc2c3c([nH]c12)-c1ccccc1NC(=O)C3`, the GI50 in the experiment on Tumor Cell line [1] is 63.1 µM; in the experiment on HCT-116 [2], 79.4 µM.

Turning to `O=C1Cc2c([nH]c3c(Cl)cccc23)-c2ccccc2N1`, the GI50 in the experiment on Tumor Cell line [1] is 100 µM; with HCT-116 [2] it was over 100 µM.

For the molecule `O=C1Cc2c([nH]c3ccccc23)-c2cc(Br)ccc2N1`, the GI50 in the experiment with Tumor Cell line [1] was 100 µM; in the experiment on HCT-116 [2], over 100 µM.
